What was measured:
Experiment in all cases: differential drug sensitivity score (dDSS) relative to sarcoma reference cohort mean DSS (DSS units (0-100 scale difference)); higher = more selective sensitivity than reference sarcomas
Conditions in all cases: exposure time: 72 h; concentration range: 10-10000 nM
CDS-ZH001-2 = test system: CDS-ZH001-2 (patient-derived CIC-DUX4 sarcoma tumoroid)
Description: (§1)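 Drug response profiling of patient-derived Ewing sarcoma and CIC::DUX4 sarcoma tumoroid models (or cells tested directly after isolation from the tumor, 'direct'). The DSS is the normalised AUC (0-100); dDSS is the sample DSS minus the mean DSS of a 34-sarcoma reference cohort profiled in the same lab.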

CDS-ZH001 = test system: CDS-ZH001 (patient-derived CIC-DUX4 sarcoma tumoroid)
Description: as §1

CDS-ZH002 direct = test system: CDS-ZH002 direct (CIC-DUX4 sarcoma cells right after isolation)
Description: as §1

CDS-ZH002 = test system: CDS-ZH002 (patient-derived CIC-DUX4 sarcoma tumoroid)
Description: as §1

CDS-ZH003 = test system: CDS-ZH003 (patient-derived CIC-DUX4 sarcoma tumoroid)
Description: as §1

ES-ZH001 = test system: ES-ZH001 (patient-derived Ewing sarcoma tumoroid)
Description: as §1

ES-ZH002 = test system: ES-ZH002 (patient-derived Ewing sarcoma tumoroid)
Description: as §1

ES-ZH004 = test system: ES-ZH004 (patient-derived Ewing sarcoma tumoroid)
Description: as §1

ES-ZH007 = test system: ES-ZH007 (patient-derived Ewing sarcoma tumoroid)
Description: as §1

ES-ZH008 = test system: ES-ZH008 (patient-derived Ewing sarcoma tumoroid)
Description: as §1

ES-ZH009 = test system: ES-ZH009 (patient-derived Ewing sarcoma tumoroid)
Description: as §1

ES-ZH016 direct = test system: ES-ZH016 direct (Ewing sarcoma cells right after isolation)
Description: as §1

ES-ZH016 = test system: ES-ZH016 (patient-derived Ewing sarcoma tumoroid)
Description: as §1

Structure (SMILES): CC(=O)O[C@H]1C(=O)[C@@]2(C)[C@H]([C@H](OC(=O)c3ccccc3)[C@]3(O)C[C@H](OC(=O)[C@H](O)[C@@H](NC(=O)c4ccccc4)c4ccccc4)C(C)=C1C3(C)C)[C@]1(OC(C)=O)CO[C@@H]1C[C@@H]2O [Paclitaxel]
- differential drug sensitivity score (CDS-ZH001-2): 4.1
- differential drug sensitivity score (CDS-ZH001): 7.6
- differential drug sensitivity score (CDS-ZH002 direct): -5.6
- differential drug sensitivity score (CDS-ZH002): -2.2
- differential drug sensitivity score (CDS-ZH003): -8
- differential drug sensitivity score (ES-ZH001): 24.6
- differential drug sensitivity score (ES-ZH002): 23
- differential drug sensitivity score (ES-ZH004): 8.9
- differential drug sensitivity score (ES-ZH007): 16.2
- differential drug sensitivity score (ES-ZH008): 15.7
- differential drug sensitivity score (ES-ZH009): 19.6
- differential drug sensitivity score (ES-ZH016 direct): 14
- differential drug sensitivity score (ES-ZH016): 16.3

Structure (SMILES): CCn1cc(-c2cccc(C(F)(F)F)c2)c2sc(C(=N)NC3CCS(=O)(=O)CC3)cc2c1=O [I-BRD9]
- differential drug sensitivity score (CDS-ZH001-2): 3.3
- differential drug sensitivity score (CDS-ZH001): 2.7
- differential drug sensitivity score (CDS-ZH002 direct): -2.6
- differential drug sensitivity score (CDS-ZH002): -1
- differential drug sensitivity score (CDS-ZH003): 8.4
- differential drug sensitivity score (ES-ZH001): -1.6
- differential drug sensitivity score (ES-ZH002): -1.8
- differential drug sensitivity score (ES-ZH004): -2.8
- differential drug sensitivity score (ES-ZH007): -1.8
- differential drug sensitivity score (ES-ZH008): -2.8
- differential drug sensitivity score (ES-ZH009): 2.6
- differential drug sensitivity score (ES-ZH016 direct): 9.8
- differential drug sensitivity score (ES-ZH016): -1.6

Structure (SMILES): C=CC(=O)N1CCN(CCCn2c(=O)c(-c3c(Cl)c(OC)cc(OC)c3Cl)cc3cnc(NC)nc32)CC1 [PRN1371]
- differential drug sensitivity score (CDS-ZH001-2): -3.3
- differential drug sensitivity score (CDS-ZH001): -9.1
- differential drug sensitivity score (CDS-ZH002 direct): -4.8
- differential drug sensitivity score (CDS-ZH002): -10.8
- differential drug sensitivity score (CDS-ZH003): -11.5
- differential drug sensitivity score (ES-ZH001): 11.9
- differential drug sensitivity score (ES-ZH002): 15.7
- differential drug sensitivity score (ES-ZH004): 15.6
- differential drug sensitivity score (ES-ZH007): 5.7
- differential drug sensitivity score (ES-ZH008): 21.1
- differential drug sensitivity score (ES-ZH009): -0.7
- differential drug sensitivity score (ES-ZH016 direct): 11.1
- differential drug sensitivity score (ES-ZH016): 2.4

Structure (SMILES): C[C@@H](Oc1cc(-c2cnn(C3CCNCC3)c2)cnc1N)c1c(Cl)ccc(F)c1Cl [Crizotinib]
- differential drug sensitivity score (CDS-ZH001-2): 4.4
- differential drug sensitivity score (CDS-ZH001): 2.3
- differential drug sensitivity score (CDS-ZH002 direct): -3.4
- differential drug sensitivity score (CDS-ZH002): -0.9
- differential drug sensitivity score (CDS-ZH003): 1.6
- differential drug sensitivity score (ES-ZH001): 3.1
- differential drug sensitivity score (ES-ZH002): 7.3
- differential drug sensitivity score (ES-ZH004): -1.9
- differential drug sensitivity score (ES-ZH007): 5.1
- differential drug sensitivity score (ES-ZH008): 1.2
- differential drug sensitivity score (ES-ZH009): 0.5
- differential drug sensitivity score (ES-ZH016 direct): 4
- differential drug sensitivity score (ES-ZH016): 0

Structure (SMILES): O=C(Nc1ccncc1)c1cc([N+](=O)[O-])ccc1Cl
- differential drug sensitivity score (CDS-ZH001-2): -2.3
- differential drug sensitivity score (CDS-ZH001): -0.7
- differential drug sensitivity score (CDS-ZH002 direct): 5.4
- differential drug sensitivity score (CDS-ZH002): -3
- differential drug sensitivity score (CDS-ZH003): -14.7
- differential drug sensitivity score (ES-ZH001): 11.8
- differential drug sensitivity score (ES-ZH002): 14.8
- differential drug sensitivity score (ES-ZH004): 11.7
- differential drug sensitivity score (ES-ZH007): 0.8
- differential drug sensitivity score (ES-ZH008): 12.2
- differential drug sensitivity score (ES-ZH009): -3.3
- differential drug sensitivity score (ES-ZH016 direct): -0.6
- differential drug sensitivity score (ES-ZH016): -2.4

Structure (SMILES): Cc1nn(C)c(COc2ccc(N3CCN(S(=O)(=O)N(C)C)CC3)cc2)c1-c1cccc2c(CCCOc3cccc4ccccc34)c(C(=O)O)n(CCN3CCOCC3)c12
- differential drug sensitivity score (CDS-ZH001-2): -0.8
- differential drug sensitivity score (CDS-ZH001): 4.4
- differential drug sensitivity score (CDS-ZH002 direct): -0.8
- differential drug sensitivity score (CDS-ZH002): -0.8
- differential drug sensitivity score (CDS-ZH003): 0
- differential drug sensitivity score (ES-ZH001): -0.8
- differential drug sensitivity score (ES-ZH002): -0.4
- differential drug sensitivity score (ES-ZH004): -0.8
- differential drug sensitivity score (ES-ZH007): -0.8
- differential drug sensitivity score (ES-ZH008): -0.8
- differential drug sensitivity score (ES-ZH009): -0.8
- differential drug sensitivity score (ES-ZH016 direct): -0.8
- differential drug sensitivity score (ES-ZH016): -0.8

Structure (SMILES): COc1ccc(-c2ccc3c(N4CCOC[C@@H]4C)nc(N4CCOC[C@@H]4C)nc3n2)cc1CO [AZD8055]
- differential drug sensitivity score (CDS-ZH001-2): 0.8
- differential drug sensitivity score (CDS-ZH001): 1.6
- differential drug sensitivity score (CDS-ZH002 direct): -2.1
- differential drug sensitivity score (CDS-ZH002): -10.9
- differential drug sensitivity score (CDS-ZH003): 8.6
- differential drug sensitivity score (ES-ZH001): 0.8
- differential drug sensitivity score (ES-ZH002): 12.1
- differential drug sensitivity score (ES-ZH004): 4.9
- differential drug sensitivity score (ES-ZH007): 4.7
- differential drug sensitivity score (ES-ZH008): 7.6
- differential drug sensitivity score (ES-ZH009): 9.6
- differential drug sensitivity score (ES-ZH016 direct): -8.5
- differential drug sensitivity score (ES-ZH016): 2

Structure (SMILES): COc1cc([C@@H]2c3cc4c(cc3[C@@H](O[C@@H]3O[C@@H]5CO[C@@H](C)O[C@H]5[C@H](O)[C@H]3O)[C@H]3COC(=O)[C@H]23)OCO4)cc(OC)c1O [Etoposide]
- differential drug sensitivity score (CDS-ZH001-2): 3.8
- differential drug sensitivity score (CDS-ZH001): -1.6
- differential drug sensitivity score (CDS-ZH002 direct): -7.3
- differential drug sensitivity score (CDS-ZH002): -4.3
- differential drug sensitivity score (CDS-ZH003): -6.8
- differential drug sensitivity score (ES-ZH001): 10
- differential drug sensitivity score (ES-ZH002): 25.5
- differential drug sensitivity score (ES-ZH004): 11.7
- differential drug sensitivity score (ES-ZH007): 6.1
- differential drug sensitivity score (ES-ZH008): 13.6
- differential drug sensitivity score (ES-ZH009): 8.6
- differential drug sensitivity score (ES-ZH016 direct): 7.2
- differential drug sensitivity score (ES-ZH016): 8.7

Structure (SMILES): CC(C)C[C@H](NC(=O)[C@H](Cc1ccccc1)NC(=O)c1cnccn1)B(O)O [Bortezomib]
- differential drug sensitivity score (CDS-ZH001-2): 6
- differential drug sensitivity score (CDS-ZH001): 6.9
- differential drug sensitivity score (CDS-ZH002 direct): 6.9
- differential drug sensitivity score (CDS-ZH002): 3.6
- differential drug sensitivity score (CDS-ZH003): 6
- differential drug sensitivity score (ES-ZH001): 3.9
- differential drug sensitivity score (ES-ZH002): 4.7
- differential drug sensitivity score (ES-ZH004): 5.5
- differential drug sensitivity score (ES-ZH007): 6.4
- differential drug sensitivity score (ES-ZH008): -0.2
- differential drug sensitivity score (ES-ZH009): 7
- differential drug sensitivity score (ES-ZH016 direct): -2.6
- differential drug sensitivity score (ES-ZH016): -5.9

Structure (SMILES): CC(=O)[C@]1(O)Cc2c(O)c3c(c(O)c2[C@@H](O[C@H]2C[C@H](N)[C@H](O)[C@H](C)O2)C1)C(=O)c1ccccc1C3=O [Idarubicin]
- differential drug sensitivity score (CDS-ZH001-2): 7
- differential drug sensitivity score (CDS-ZH001): -0.3
- differential drug sensitivity score (CDS-ZH002 direct): 1.8
- differential drug sensitivity score (CDS-ZH002): 0.5
- differential drug sensitivity score (CDS-ZH003): 0.5
- differential drug sensitivity score (ES-ZH001): 11.8
- differential drug sensitivity score (ES-ZH002): 19.4
- differential drug sensitivity score (ES-ZH004): -2.2
- differential drug sensitivity score (ES-ZH007): -9.5
- differential drug sensitivity score (ES-ZH008): 6.4
- differential drug sensitivity score (ES-ZH009): 13.4
- differential drug sensitivity score (ES-ZH016 direct): 7.3
- differential drug sensitivity score (ES-ZH016): 11.8

Structure (SMILES): Cc1cnc(Nc2ccc(OCCN3CCCC3)cc2)nc1Nc1cccc(S(=O)(=O)NC(C)(C)C)c1 [Fedratinib]
- differential drug sensitivity score (CDS-ZH001-2): 0.2
- differential drug sensitivity score (CDS-ZH001): -0.1
- differential drug sensitivity score (CDS-ZH002 direct): -3.3
- differential drug sensitivity score (CDS-ZH002): -1.7
- differential drug sensitivity score (CDS-ZH003): -2.2
- differential drug sensitivity score (ES-ZH001): 1.8
- differential drug sensitivity score (ES-ZH002): 5.5
- differential drug sensitivity score (ES-ZH004): -3.2
- differential drug sensitivity score (ES-ZH007): -1.8
- differential drug sensitivity score (ES-ZH008): 1.5
- differential drug sensitivity score (ES-ZH009): 3.9
- differential drug sensitivity score (ES-ZH016 direct): -0.1
- differential drug sensitivity score (ES-ZH016): -1.3

Structure (SMILES): O=C(/C=C\n1cnc(-c2cc(C(F)(F)F)cc(C(F)(F)F)c2)n1)NNc1ccccn1 [Verdinexor]
- differential drug sensitivity score (CDS-ZH001-2): 7.9
- differential drug sensitivity score (CDS-ZH001): 0.6
- differential drug sensitivity score (CDS-ZH002 direct): 0
- differential drug sensitivity score (CDS-ZH002): -3.6
- differential drug sensitivity score (CDS-ZH003): -13
- differential drug sensitivity score (ES-ZH001): 3.4
- differential drug sensitivity score (ES-ZH002): 11
- differential drug sensitivity score (ES-ZH004): 8.4
- differential drug sensitivity score (ES-ZH007): 1.5
- differential drug sensitivity score (ES-ZH008): 17.7
- differential drug sensitivity score (ES-ZH009): -3.2
- differential drug sensitivity score (ES-ZH016 direct): 3.7
- differential drug sensitivity score (ES-ZH016): 0.1

Structure (SMILES): CN1C(=O)N[C@H](Cc2c[nH]c3c(Cl)cccc23)C1=O [Necrostatin-2]
- differential drug sensitivity score (CDS-ZH001-2): 8.4
- differential drug sensitivity score (CDS-ZH001): -2.7
- differential drug sensitivity score (CDS-ZH002 direct): -2.5
- differential drug sensitivity score (CDS-ZH002): -1.9
- differential drug sensitivity score (CDS-ZH003): -2.7
- differential drug sensitivity score (ES-ZH001): -1
- differential drug sensitivity score (ES-ZH002): 2.2
- differential drug sensitivity score (ES-ZH004): 7.5
- differential drug sensitivity score (ES-ZH007): -2.7
- differential drug sensitivity score (ES-ZH008): 13.8
- differential drug sensitivity score (ES-ZH009): -2.7
- differential drug sensitivity score (ES-ZH016 direct): 15.6
- differential drug sensitivity score (ES-ZH016): -1.3

Structure (SMILES): CN(C)C/C=C/C(=O)Nc1ccc(C(=O)Nc2cccc(Nc3ncc(Cl)c(-c4c[nH]c5ccccc45)n3)c2)cc1 [THZ1]
- differential drug sensitivity score (CDS-ZH001-2): 6.7
- differential drug sensitivity score (CDS-ZH001): 0
- differential drug sensitivity score (CDS-ZH002 direct): 9.2
- differential drug sensitivity score (CDS-ZH002): 0.9
- differential drug sensitivity score (CDS-ZH003): -8.9
- differential drug sensitivity score (ES-ZH001): 4.2
- differential drug sensitivity score (ES-ZH002): 4.3
- differential drug sensitivity score (ES-ZH004): 11.4
- differential drug sensitivity score (ES-ZH007): 0.1
- differential drug sensitivity score (ES-ZH008): 8.6
- differential drug sensitivity score (ES-ZH009): 7.4
- differential drug sensitivity score (ES-ZH016 direct): 9
- differential drug sensitivity score (ES-ZH016): 10.2
